Experimental data published in US20220162188A1, “ISOPRENOIDS AND METHODS OF MAKING THEREOF” (NORTH CAROLINA STATE UNIVERSITY, priority 2019, published 2022).
“Also recorded” adds a separate entry of the source.

Key:
[1] = target: T1, isopentenyl phosphate kinase (IPK) (Thermoplasma acidophilum, UniProt Q9HLX1); type: biochemical; details: overnight reaction
T1 sequence (Q9HLX1 1-245): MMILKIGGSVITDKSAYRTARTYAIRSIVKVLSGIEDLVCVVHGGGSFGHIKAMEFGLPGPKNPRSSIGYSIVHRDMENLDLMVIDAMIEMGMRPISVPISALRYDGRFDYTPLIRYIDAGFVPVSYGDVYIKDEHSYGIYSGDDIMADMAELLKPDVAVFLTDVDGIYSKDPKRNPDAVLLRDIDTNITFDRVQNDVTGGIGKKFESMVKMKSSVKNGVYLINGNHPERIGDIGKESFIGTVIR
Method: Since the substrate scope of IPK has yet to be fully described, here IPK was tested against a wider panel of substrates. The IPK gene from T. acidophilum was codon optimized and subcloned into pET28a. Following expression in E. coli BL21 DE3, the enzyme was purified via metal-chelation affinity chromatography. Next, the substrate specificity of the enzyme was determined in vitro using a panel of synthesized alcohol monophosphates using low resolution mass spectrometry (FIG. 25). The availability of alcohol diphosphate byproducts (FIG. 23) conveniently served as product standards.
Assay for Initial Activity of Monophosphates with IPK. Fractions from the synthesis of the diphosphates on a 400 μmol scale containing the monophosphates were concentrated in vacuo and resuspended to 5 mg/mL in water. Enzymatic reaction mixtures contained 50 mM Tris (pH 8.0), 2.5 mM MgCl2, 0.05 mM DTT, 1 mM ATP, and 4.2 μg of enzyme in a 200 μL reaction with 40 μL of substrate (1 mg/mL final). A reaction mixture without enzyme was setup as a control. Reactions were incubated overnight at 37° C. and checked by low-resolution LC-MS for diphosphate product formation. Standards from the isolated diphosphates were used to confirm retention time and mass. Reactions with a >10% diphosphate generation as compared to the no enzyme control were selected for kinetic experiments. LC-MS experiments were conducted using a Shimadzu LC-MS 2020 single quadrupole instrument with a Phenomenex Kinetex UPLC C18 column (2.1×50 mm, […], 100 Å pores) column. 5 μL was injected onto and separated using a series of linear gradients developed from 0.1% formic acid in H2O (A) to 0.1% formic acid in acetonitrile (B) at 0.2 mL/min using the following protocol: 0-2.2 min, 95-1% A; 2.21-2.6 min, 1% A; 2.61-2.62 min, 1-95% A; 2.63-3.5 min, 95% A. Products of enzymatic reactions were verified by mass and comparison with diphosphate standards previously synthesized.

[2] = system: lycopene production via the DXP pathway; experiment: Lycopene colorimetric reporter assay; type: cell-based; details: Fs 0.5 μM; E. coli BL21Tuner(DE3) lycopene reporter strain expressing IPK
PhoN = experiment: Substrate specificity of wild-type PhoN, HR-LCMS; type: biochemical, Shigella flexneri; details: alcohol 100 mM, PhoN 20 μg/mL, ATP 50 mM
Method: Broad substrate specificity of wild-type PhoN. Each commercially available alcohol (100 mM) was tested for activity with purified PhoN (20 μg/mL) and ATP (50 mM). The product mixtures were analyzed by high resolution liquid chromatography mass spectrometry (HR-LCMS) to quantify the conversion of alcohol to mono-phosphate. Quantification was achieved by the addition of an internal standard (either geranyl phosphate or cinnamyl monophosphate) at known fixed concentration. The results are illustrated in FIG. 54 and FIG. 55.

FgaPT2 M328G = FgaPT2 M328G (Aspergillus fumigatus, UniProt Q50EL0, M328G); experiment: Substrate specificity of FgaPT2 mutant M328G in vitro; type: biochemical; details: pyrophosphate 3 mM, enzyme 350 μg/mL, Trp 1 mM
Method: Altered substrate specificity of the prenyltransferase FgaPT2 mutant M328G in vitro. Each chemically synthesized pyrophosphate (3 mM) was tested for activity with purified FgaPT2 M328 (350 μg/mL) and Trp (1 mM). […] The results are illustrated in FIG. 58 and FIG. 59.

CpaD I329G = CpaD I329G (Aspergillus oryzae, UniProt F5HN73, I329G); experiment: Substrate specificity of prenyltransferase mutant CpaD I329G in vitro; type: biochemical; details: pyrophosphate 2 mM, cyclic dipeptide 1 mM, enzyme 1 mg/mL
Text: Altered substrate specificity of the prenyltransferase mutant CpaD 1329G in vitro. […] The results are illustrated in FIG. 62 and FIG. 63.

FtmPT1 M364G = FtmPT1 M364G (Aspergillus fumigatus, UniProt Q4WAW7, M364G); details: pyrophosphate 2 mM, cyclic dipeptide 1 mM
Method: Each chemically synthesized pyrophosphate (2 mM) and cyclic dipeptide (1 mM) were tested for activity with purified FtmPT1 (100 mg/mL). […] The substrate (cyclic dipeptide) and product peak areas were determined by HPLC at a detection wavelength of 254 nm, and the conversion was calculated.

[3] = target: T1, isopentenyl phosphate kinase (IPK); experiment: NADH-coupled kinetic assay of IPK; details: for kcat fold higher than that with IP: relative to natural substrate IP
Method: (§1) The data was fitted to the Michaelis-Menten equation using SigmaPlot, and the kinetic parameters (kcat, Km, kcat/Km) extracted.
(§2) NADH-Coupled Kinetic Assays. NADH coupled assays were performed with purified enzymes. Reaction progress was monitored by absorbance at 340 nm at 30° C. in a 96-well plate using a Biotek Synergy 4 plate reader (Winooski, Vt.). 200 μL enzymatic mixtures contained 50 mM Tris (pH 8.0), 25 mM KCl, 2.5 mM MgCl2, 0.05 mM DTT, 1 mM ATP, 320 μM NADH, 400 μM phosphoenolpyruvate, 0.5 U pyruvate kinase, 0.7 U lactate dehydrogenase, and various amounts of substrate. Conditions were verified by doubling enzyme and verifying the initial rate was doubled as well.
(§3) Kinetics of IPK were done with purified enzyme using 0.09 μg of enzyme per well. Serial dilution was used to generate specific concentrations of substrates (3125, 1562, 781, 625, 391, 195, 98, 24, 12, and 3 μM). Each condition was performed in triplicate. Nonlinear regression was fitted using SigmaPlot (Systat Software Inc., San Jose, Calif., USA).

CpaD = CpaD (Aspergillus oryzae, UniProt F5HN73); experiment: Substrate specificity of prenyltransferase CpaD in vitro; type: biochemical; details: pyrophosphate 0.3 mM, cyclic dipeptide 0.25 mM, CpaD 1 mg/mL
Method: Broad substrate specificity of the prenyltransferase CpaD in vitro. Each chemically synthesized pyrophosphate (0.3 mM) and cyclic dipeptide (0.25 mM) were tested for activity with purified CpaD (1 mg/mL). […] The results are illustrated in FIG. 60 and FIG. 61.

FtmPT1 = FtmPT1 (Aspergillus fumigatus, UniProt Q4WAW7); type: biochemical; details: pyrophosphate 2 mM, cyclic dipeptide 1 mM
FgaPT2 = FgaPT2 (Aspergillus fumigatus, UniProt Q50EL0); experiment: Substrate specificity of wild-type prenyltransferase FgaPT2 in vitro; type: biochemical; details: pyrophosphate 3 mM, FgaPT2 200 μg/mL, Trp 1 mM
Method: Broad substrate specificity of the wild-type prenyltransferase FgaPT2 in vitro. Each chemically synthesized pyrophosphate (3 mM) was tested for activity with purified FgaPT2 (200 μg/mL) and Trp (1 mM). The product mixtures were analyzed by HR-LCMS to identify the mass ions consistent with the expected alkylated product. The substrate (Trp) and product peak areas were determined by high performance liquid chromatography (HPLC) at a detection wavelength of 269 nm, and the conversion was calculated. The results are illustrated in FIG. 56 and FIG. 57.

[4] = target: IspA, a farnesyl diphosphate synthase (FPPase) (Escherichia coli, UniProt P22939); details: wild-type IspA, DMAPP as starter unit
[5] = substrate: C=C(C)CCOP(=O)(O)O; experiment: purified protein, by the assay type; details: other: IPK with monophosphorylated substrate, ± SD of the mean, 1 mM ATP, 30° C., pH 8.0
Method: as §1, §2, §3

[6] = substrate: CC(C)=CCOP(=O)(O)O; experiment: purified protein, by the assay type; details: other: IPK with monophosphorylated substrate, ± SD of the mean, 1 mM ATP, 30° C., pH 8.0
Method: as §1, §2, §3

FgaPT2, sequence (Q50EL0 whole entry): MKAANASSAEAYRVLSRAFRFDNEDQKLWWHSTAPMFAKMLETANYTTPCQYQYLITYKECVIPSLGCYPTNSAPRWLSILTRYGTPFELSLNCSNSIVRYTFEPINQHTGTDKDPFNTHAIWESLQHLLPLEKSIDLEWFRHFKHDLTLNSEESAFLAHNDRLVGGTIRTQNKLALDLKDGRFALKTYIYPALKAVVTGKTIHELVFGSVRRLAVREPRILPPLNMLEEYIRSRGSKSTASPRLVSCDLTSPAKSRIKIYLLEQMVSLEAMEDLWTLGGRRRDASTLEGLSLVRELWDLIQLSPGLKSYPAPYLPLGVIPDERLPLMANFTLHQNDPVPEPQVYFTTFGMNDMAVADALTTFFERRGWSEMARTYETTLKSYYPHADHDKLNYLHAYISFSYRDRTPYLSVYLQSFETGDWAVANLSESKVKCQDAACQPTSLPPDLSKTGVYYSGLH
CpaD I329G, sequence (F5HN73 whole entry I329G): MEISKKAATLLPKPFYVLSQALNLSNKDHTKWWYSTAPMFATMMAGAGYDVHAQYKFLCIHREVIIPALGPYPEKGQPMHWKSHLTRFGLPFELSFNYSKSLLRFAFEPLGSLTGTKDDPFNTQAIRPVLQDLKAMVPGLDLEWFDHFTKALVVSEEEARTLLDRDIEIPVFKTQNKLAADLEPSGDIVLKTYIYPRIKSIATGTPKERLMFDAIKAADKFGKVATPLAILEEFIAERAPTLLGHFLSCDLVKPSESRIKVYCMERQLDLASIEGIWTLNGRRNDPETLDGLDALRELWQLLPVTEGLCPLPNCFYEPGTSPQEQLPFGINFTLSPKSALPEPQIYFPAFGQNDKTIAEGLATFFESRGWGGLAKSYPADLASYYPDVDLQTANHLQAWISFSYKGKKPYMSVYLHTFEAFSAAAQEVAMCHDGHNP
FtmPT1 M364G, sequence (Q4WAW7 whole entry M364G): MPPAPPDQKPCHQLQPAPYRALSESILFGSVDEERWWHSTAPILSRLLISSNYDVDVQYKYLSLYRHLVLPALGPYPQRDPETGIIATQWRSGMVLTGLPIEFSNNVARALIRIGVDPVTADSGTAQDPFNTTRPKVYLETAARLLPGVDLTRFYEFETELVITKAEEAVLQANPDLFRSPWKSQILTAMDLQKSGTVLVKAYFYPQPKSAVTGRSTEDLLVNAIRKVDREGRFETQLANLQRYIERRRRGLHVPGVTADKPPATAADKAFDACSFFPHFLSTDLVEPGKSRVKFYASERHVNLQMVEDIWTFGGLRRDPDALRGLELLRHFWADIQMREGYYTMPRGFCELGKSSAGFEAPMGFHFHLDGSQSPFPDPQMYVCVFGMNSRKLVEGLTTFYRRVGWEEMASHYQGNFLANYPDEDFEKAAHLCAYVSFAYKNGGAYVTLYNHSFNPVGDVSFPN
FgaPT2 M328G, sequence (Q50EL0 whole entry M328G): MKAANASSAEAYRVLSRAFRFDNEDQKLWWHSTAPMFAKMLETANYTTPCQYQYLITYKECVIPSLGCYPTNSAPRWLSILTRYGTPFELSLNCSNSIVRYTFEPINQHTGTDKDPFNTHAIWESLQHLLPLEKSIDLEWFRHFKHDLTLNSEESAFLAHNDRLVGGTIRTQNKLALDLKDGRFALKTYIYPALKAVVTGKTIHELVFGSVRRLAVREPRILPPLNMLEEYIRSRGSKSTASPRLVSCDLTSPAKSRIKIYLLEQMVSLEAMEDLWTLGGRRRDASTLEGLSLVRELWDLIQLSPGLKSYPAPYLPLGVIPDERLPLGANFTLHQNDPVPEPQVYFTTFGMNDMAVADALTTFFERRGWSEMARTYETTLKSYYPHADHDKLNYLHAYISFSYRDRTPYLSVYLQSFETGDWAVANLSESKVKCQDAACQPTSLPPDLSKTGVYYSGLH
IspA, a farnesyl diphosphate synthase (FPPase), sequence (P22939 whole entry): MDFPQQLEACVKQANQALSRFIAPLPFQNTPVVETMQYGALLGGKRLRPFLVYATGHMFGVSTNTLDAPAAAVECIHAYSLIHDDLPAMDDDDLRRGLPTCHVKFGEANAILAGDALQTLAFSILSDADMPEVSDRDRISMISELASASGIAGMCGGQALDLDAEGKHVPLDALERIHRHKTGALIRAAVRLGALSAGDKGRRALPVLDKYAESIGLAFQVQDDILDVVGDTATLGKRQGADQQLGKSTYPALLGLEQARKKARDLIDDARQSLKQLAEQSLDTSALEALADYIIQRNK
FtmPT1, sequence (Q4WAW7 whole entry): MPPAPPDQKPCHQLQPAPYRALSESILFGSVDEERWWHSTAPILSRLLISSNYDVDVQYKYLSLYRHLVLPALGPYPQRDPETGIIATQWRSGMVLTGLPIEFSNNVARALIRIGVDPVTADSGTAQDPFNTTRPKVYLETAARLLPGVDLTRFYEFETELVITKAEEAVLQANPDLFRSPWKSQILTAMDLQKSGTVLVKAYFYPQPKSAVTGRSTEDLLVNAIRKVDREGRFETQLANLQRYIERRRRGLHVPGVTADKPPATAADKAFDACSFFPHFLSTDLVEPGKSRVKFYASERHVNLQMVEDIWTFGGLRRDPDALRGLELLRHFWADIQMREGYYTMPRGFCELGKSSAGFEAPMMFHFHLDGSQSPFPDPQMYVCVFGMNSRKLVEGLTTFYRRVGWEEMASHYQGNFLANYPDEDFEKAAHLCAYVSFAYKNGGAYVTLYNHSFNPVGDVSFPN
CpaD, sequence (F5HN73 whole entry, species assumed): as the sequence (F5HN73 whole entry I329G) above, with G329I counted along it

Molecule: CC(C)=CCC/C(C)=C\CC/C(C)=C\COP(=O)(O)O [FP, farnesyl monophosphate]
- phosphorylation by IPK to the corresponding pyrophosphate, as judged by MS [1]: did not result in detection of the corresponding pyrophosphate

Molecule: O=CN(O)CCCP(=O)(O)O [Fs, fosmidomycin]
- lycopene production [2]: almost completely inhibited lycopene production

Molecule: CC(C)=CCC/C(C)=C/COP(=O)(O)O [GP, geranyl monophosphate]
- phosphorylation by IPK to the corresponding pyrophosphate, as judged by MS [1]: did not result in detection of the corresponding pyrophosphate

Molecule: CC(C)=CCC/C(C)=C\COP(=O)(O)O [NP, neryl monophosphate]
- phosphorylation by IPK to the corresponding pyrophosphate, as judged by MS [1]: did not result in detection of the corresponding pyrophosphate

Molecule: C=CCCOP(=O)(O)O [Substrate 1]
- PhoN-catalyzed phosphorylation of alcohol: expected product detected (PhoN): mass ions were detected by HR-LCMS consistent with the expected product
- FgaPT2 M328G-catalyzed alkylation of Trp: expected product detected (FgaPT2 M328G): products detected by HPLC and confirmed by LR-LCMS
- CpaD I329G-catalyzed alkylation of cyclic dipeptide: expected product detected (CpaD I329G): products detected by HPLC and confirmed by LR-LCMS
- FtmPT1 M364G-catalyzed alkylation of cyclic dipeptide: expected product detected (FtmPT1 M364G): products detected by HPLC and confirmed by LR-LCMS
- kcat fold higher than that with IP [3]: 4.25 fold

Molecule: C=CCC(C)OP(=O)(O)O (stereo not shown) [Substrate 2]
- PhoN-catalyzed phosphorylation of alcohol: expected product detected (PhoN): mass ions were detected by HR-LCMS consistent with the expected product
- CpaD-catalyzed alkylation of cyclic dipeptide: expected product detected (CpaD): products detected by HPLC and confirmed by LR-LCMS
- FtmPT1-catalyzed alkylation of cyclic dipeptide: expected product detected (FtmPT1): products detected by HPLC and confirmed by LR-LCMS
- use as IPK substrate [3]: detectable but kinetically irrelevant

Molecule: C=C(Br)CCOP(=O)(O)O [Substrate 3]
- PhoN-catalyzed phosphorylation of alcohol: expected product detected (PhoN): mass ions were detected by HR-LCMS consistent with the expected product
- FgaPT2 M328G-catalyzed alkylation of Trp: expected product detected (FgaPT2 M328G): products detected by HPLC and confirmed by LR-LCMS
- CpaD I329G-catalyzed alkylation of cyclic dipeptide: expected product detected (CpaD I329G): products detected by HPLC and confirmed by LR-LCMS
- FtmPT1 M364G-catalyzed alkylation of cyclic dipeptide: expected product detected (FtmPT1 M364G): products detected by HPLC and confirmed by LR-LCMS
- kcat fold higher than that with IP [3]: 5.1 fold

Molecule: C#CCCCOP(=O)(O)O [Substrate 4]
- PhoN-catalyzed phosphorylation of alcohol: expected product detected (PhoN): mass ions were detected by HR-LCMS consistent with the expected product
- FgaPT2 M328G-catalyzed alkylation of Trp: expected product detected (FgaPT2 M328G): products detected by HPLC and confirmed by LR-LCMS
- CpaD I329G-catalyzed alkylation of cyclic dipeptide: expected product detected (CpaD I329G): products detected by HPLC and confirmed by LR-LCMS
- FtmPT1 M364G-catalyzed alkylation of cyclic dipeptide: expected product detected (FtmPT1 M364G): products detected by HPLC and confirmed by LR-LCMS

Molecule: C=C(C)COP(=O)(O)O [Substrate 5]
- PhoN-catalyzed phosphorylation of alcohol: expected product detected (PhoN): mass ions were detected by HR-LCMS consistent with the expected product

Molecule: C=CCCCOP(=O)(O)O [Substrate 6]
- FgaPT2-catalyzed alkylation of Trp: expected product detected (FgaPT2): mass ions were detected by HR-LCMS consistent with the expected product
- fold drop in kcat/Km ([3]; between 1 and 6): 3 fold

Molecule: CCC/C=C\COP(=O)(O)O [Substrate 7]
- FgaPT2-catalyzed alkylation of Trp: expected product detected (FgaPT2): mass ions were detected by HR-LCMS consistent with the expected product

Molecule: CCC/C=C/COP(=O)(O)O [Substrate 8]
- FgaPT2-catalyzed alkylation of Trp: expected product detected (FgaPT2): mass ions were detected by HR-LCMS consistent with the expected product
- fold decrease in kcat/Km ([3]; π-bond geometry of 7 switched from Z to E in 8): 17 fold

Molecule: C#CCCOP(=O)(O)O [Substrate 9]
- PhoN-catalyzed phosphorylation of alcohol: expected product detected (PhoN): mass ions were detected by HR-LCMS consistent with the expected product

Molecule: C=CCC(C)OP(=O)(O)OP(=O)(O)O (stereo not shown) [Substrate 19]
- PhoN-catalyzed phosphorylation of alcohol: expected product detected (PhoN): mass ions were detected by HR-LCMS consistent with the expected product
- FgaPT2-catalyzed alkylation of Trp: expected product detected (FgaPT2): mass ions were detected by HR-LCMS consistent with the expected product
- CpaD-catalyzed alkylation of cyclic dipeptide: expected product detected (CpaD): products detected by HPLC and confirmed by LR-LCMS
- FtmPT1-catalyzed alkylation of cyclic dipeptide: expected product detected (FtmPT1): products detected by HPLC and confirmed by LR-LCMS

Molecule: C=CCCCOP(=O)(O)O [Substrate 27]
- use as extender unit in place of IPP (GPP analogue by LC-MS), words [4]: not utilized by IspA; also recorded: did not facilitate carbon-carbon bond formation; also recorded: did not serve as an extender unit
- kcat ([3]; IPK with monophosphorylated substrate, ± SD of the mean): 93.1 ± 2.67 s⁻¹
- Km ([3]; IPK with monophosphorylated substrate, ± SD of the mean, 1 mM ATP, 30° C.): 848 ± 57.9 µM

Molecule: O=P(O)(O)OP(=O)(O)OCc1cccnc1 [Substrate 32]
- use as extender unit in place of IPP (GPP analogue by LC-MS), words [4]: did not serve as an extender unit

B1: isopentenyl phosphate kinase (IPK) (Thermoplasma acidophilum DSM 1728) (protein)
chain: T1 sequence (Q9HLX1 1-245)
- Km [5]: 27.9 ± 4.37 µM
- kcat [5]: 43.9 ± 1.1 s⁻¹
- kcat/Km [5]: 1.5e+06 M⁻¹ s⁻¹
- Km [6]: 134 ± 38.2 µM
- kcat [6]: 32.7 ± 2.05 s⁻¹
- kcat/Km [6]: 230000 M⁻¹ s⁻¹
